Experimental data published in ChEMBL document CHEMBL1909576, “Continued exploration of biphenylsulfonamide scaffold as a platform for aggrecanase-1 inhibition” (Bioorg Med Chem Lett, 2011).
≈ marks a conversion by molar mass, not a printed value.

How the values were obtained:
[1] = target: Collagenase 3 (Homo sapiens, UniProt P45452); assay: Inhibition of MMP13
[2] = Half life in Sprague-Dawley rat; format: ADME, organism-based; conditions: in vivo
[3] = Bioavailability in Sprague-Dawley rat; format: ADME, organism-based; conditions: in vivo
[4] = target: T1, A disintegrin and metalloproteinase with thrombospondin motifs 4 (Homo sapiens, UniProt O75173); assay: Inhibition of aggrecanase-1
T1 sequence (O75173 whole entry): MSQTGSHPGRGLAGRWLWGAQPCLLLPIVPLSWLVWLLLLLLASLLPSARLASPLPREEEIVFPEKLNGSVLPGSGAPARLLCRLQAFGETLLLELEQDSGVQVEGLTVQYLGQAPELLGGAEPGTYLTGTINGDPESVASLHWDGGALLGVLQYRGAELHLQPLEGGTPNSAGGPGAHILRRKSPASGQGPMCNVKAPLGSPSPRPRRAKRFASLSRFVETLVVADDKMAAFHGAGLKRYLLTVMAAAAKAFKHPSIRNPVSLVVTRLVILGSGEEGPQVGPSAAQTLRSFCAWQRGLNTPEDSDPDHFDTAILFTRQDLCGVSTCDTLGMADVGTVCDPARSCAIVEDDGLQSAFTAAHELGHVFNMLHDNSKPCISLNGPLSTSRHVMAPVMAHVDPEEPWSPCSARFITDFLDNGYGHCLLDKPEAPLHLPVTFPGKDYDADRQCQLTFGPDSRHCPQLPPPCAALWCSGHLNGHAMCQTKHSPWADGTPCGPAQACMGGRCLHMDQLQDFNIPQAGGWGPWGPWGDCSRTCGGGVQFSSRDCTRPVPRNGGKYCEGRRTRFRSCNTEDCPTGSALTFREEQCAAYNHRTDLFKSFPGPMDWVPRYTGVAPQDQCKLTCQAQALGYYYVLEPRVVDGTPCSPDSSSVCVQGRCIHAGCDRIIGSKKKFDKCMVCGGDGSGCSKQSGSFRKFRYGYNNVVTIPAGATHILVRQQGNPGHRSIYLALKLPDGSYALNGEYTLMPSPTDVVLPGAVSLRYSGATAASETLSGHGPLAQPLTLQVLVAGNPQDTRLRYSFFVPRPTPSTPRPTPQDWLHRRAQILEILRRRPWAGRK

[5] = Clearance in Sprague-Dawley rat; format: ADME, organism-based; conditions: in vivo
[6] = Solubility of the compound at pH 7.4; format: physicochemical; conditions: buffer
[7] = Permeability across human Caco2 cells; format: ADME, cell-based; conditions: Caco-2, read-out: permeability

IC50 [1]	half-life [2]	bioavailability [3]	IC50 [4]	clearance [5]	solubility [6]	Papp [7]	SMILES
4.6 nM	360 min	23%	15 µM	1.07 mL/min/kg	> 100 µg/mL		CC(C)[C@@H](NS(=O)(=O)c1ccc(-c2ccc(OCc3ccccc3C#N)cc2)cc1)C(=O)O
0.1 nM	420 min		0.8 µM		53 µg/mL (≈ 114 µM)	0.8 ×10⁻⁶ cm/s	CC(C)[C@@H](NS(=O)(=O)c1ccc(-c2ccc(OCc3cccc(C#N)c3)cc2)cc1)C(=O)O
